# According to patent publication US20100120778A1, “QUINOXALINE-BASED LXR MODULATORS” (Wyeth, priority 2008, published 2010):
# Biological target: T1, human LXRβ (Homo sapiens, UniProt P55055)
# T1 construct: biotin (biotinylated); made in house; host or cells: E. coli
# T1 sequence (P55055 1-460): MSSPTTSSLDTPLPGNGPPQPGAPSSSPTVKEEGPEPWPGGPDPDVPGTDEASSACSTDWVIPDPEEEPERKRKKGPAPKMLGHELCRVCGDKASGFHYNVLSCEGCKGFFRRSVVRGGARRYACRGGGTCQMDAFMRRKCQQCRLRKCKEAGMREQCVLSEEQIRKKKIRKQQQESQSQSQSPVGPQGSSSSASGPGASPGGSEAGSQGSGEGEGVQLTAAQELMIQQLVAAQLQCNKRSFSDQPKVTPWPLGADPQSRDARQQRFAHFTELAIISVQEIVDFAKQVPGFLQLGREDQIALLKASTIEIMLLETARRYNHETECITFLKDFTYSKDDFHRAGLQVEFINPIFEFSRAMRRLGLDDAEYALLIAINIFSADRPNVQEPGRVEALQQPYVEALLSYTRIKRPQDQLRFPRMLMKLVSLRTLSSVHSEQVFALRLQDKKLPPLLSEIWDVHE
# Test: Ligand-binding test procedure for human LXRβ (3H T0901317 tracer, flash plates)
# Details: biotinylated hLXRβ, tracer 3H T0901317, +4° C. over night
# Method: I. Ligand-Binding Test Procedure for Human LXRβ.
# Receptor source: E. coli extracted from cells expressing biotinylated hLXRβ. Extract was made in a similar buffer as above, but with 50 mM TRIS.
# Washed streptavidin and coated flash plates with wash buffer. Diluted receptor extract to give Bmax˜4000 cpm and add to the wells. Wrapped the plates in aluminum foil and stored them at +4° C. overnight.
# Made a dilution series in DMSO of the test ligands. Made a 5 nM solution of the radioactive tracer in buffer. Mixed 250 μl diluted tracer with 5 μl of the test ligand from each concentration of the dilution series. Washed the receptor-coated flash plates. Added 200 μl per well of the ligand/radiolabel mixture to the receptor-coated flash plates. Wrapped the plates in aluminum foil and incubate at +4° C. over night.
# Aspirated wells, and washed the flashed plates. Sealed the plate.
# Measured the remaining radioactivity in the plate.
row,IC50,Compound
1,> 1 µM,"CS(=O)(=O)c1cccc(-c2ccc(-c3cnc4cccc(C(F)(F)F)c4n3)cc2)c1 [Example 25, 2-[3′-(methylsulfonyl)biphenyl-4-yl]-8-(trifluoromethyl)quinoxaline]"
2,> 1 µM,"CNC(=O)c1cccc(-c2ccc(-c3nc4cccc(C(F)(F)F)c4nc3C)cc2)c1 [Example 52, N-methyl-4′-[3-methyl-5-(trifluoromethyl)quinoxalin-2-yl]biphenyl-3-carboxamide]"
3,0.933 µM,"CNS(=O)(=O)c1cccc(-c2ccc(Oc3nc4cccc(Cl)c4nc3C)cc2)c1 [Example 91, 4′-[(5-chloro-3-methylquinoxalin-2-yl)oxy]-N-methylbiphenyl-3-sulfonamide]"
4,> 1 µM,"CS(=O)(=O)c1cccc(Oc2cccc(-c3cnc4cccc(Cl)c4n3)c2)c1 [Example 13, 8-chloro-2-{3-[3-(methylsulfonyl)phenoxy]phenyl}quinoxaline]"
5,> 1 µM,"CS(=O)(=O)Nc1cccc(-c2ccc(Oc3cnc4c(Cl)cccc4n3)cc2)c1 [Example 87, N-{4′-[(5-chloroquinoxalin-2-yl)oxy]biphenyl-3-yl}methanesulfonamide]"
6,> 1 µM,"Cc1nc2c(C(F)(F)F)cccc2nc1-c1ccc(-c2cccc(S(C)(=O)=O)c2)cc1F [Example 28, 2-[3-fluoro-3′-(methylsulfonyl)biphenyl-4-yl]-3-methyl-5-(trifluoromethyl)quinoxaline]"
7,> 1 µM,"CS(=O)(=O)c1ccc(-c2ccc(-c3cnc4cccc(C(F)(F)F)c4n3)cc2)cc1 [Example 23, 2-[4′-(methylsulfonyl)biphenyl-4-yl]-8-(trifluoromethyl)quinoxaline]"
8,0.257 µM,"CS(=O)(=O)Nc1cccc(-c2cccc(Oc3cnc4c(Cl)cccc4n3)c2)c1 [Example 85, N-{3′-[(5-Chloroquinoxalin-2-yl)oxy]biphenyl-3-yl}methanesulfonamide]"
9,1.09 µM,"CNS(=O)(=O)c1cccc(-c2ccc(-c3nc4c(C(F)(F)F)cccc4nc3C)cc2)c1 [Example 48, N-methyl-4′-[3-methyl-8-(trifluoromethyl)quinoxalin-2-yl]biphenyl-3-sulfonamide]"
10,2.47 µM,"Cc1nc2c(Cl)cccc2nc1Oc1ccc(-c2cccc(S(N)(=O)=O)c2)cc1 [Example 92, 4′-[(5-chloro-3-methylquinoxalin-2-yl)oxy]biphenyl-3-sulfonamide]"
11,> 1 µM,"Cc1nc2cccc(C(F)(F)F)c2nc1-c1ccc(Oc2cccc(S(C)(=O)=O)c2)cc1F [Example 29, 3-{2-fluoro-4-[3-(methylsulfonyl)phenoxy]phenyl}-2-methyl-5-(trifluoromethyl)quinoxaline]"
12,> 1 µM,"Cc1nc2c(C(F)(F)F)cccc2nc1-c1ccc(-c2cccc(NS(C)(=O)=O)c2)cc1 [Example 49, N-{4′-[3-methyl-5-(trifluoromethyl)quinoxalin-2-yl]biphenyl-3-yl}methanesulfonamide]"
13,> 1 µM,"Cc1nc2c(C(F)(F)F)cccc2nc1-c1ccc(-c2cccc(C(N)=O)c2)cc1 [Example 50, 4′-[3-methyl-5-(trifluoromethyl)quinoxalin-2-yl]biphenyl-3-carboxamide]"
14,> 1 µM,"CS(=O)(=O)c1cccc(Oc2cccc(-c3cnc4c(C(F)(F)F)cccc4n3)c2)c1 [Example 14, 2-{3-[3-(methylsulfonyl)phenoxy]phenyl}-5-(trifluoromethyl)quinoxaline]"
15,> 1 µM,"Cc1nc2c(C(F)(F)F)cccc2nc1-c1cc(Oc2ccc(S(=O)(=O)CC#N)cc2)ccc1Cl [Example 41, [(4-{4-chloro-3-[3-methyl-5-(trifluoromethyl)quinoxalin-2-yl]phenoxy}phenyl)sulfonyl]-acetonitrile]"
